The values that follow come from patent US12251234B2, “Systems and methods for transdermally detecting tissue ischemia and evaluating organ function using serum luminescence” (University of Macau, priority 2018, dated 2025).

Data set [1] can be described thus: ICG fluorescence dosimetry in rat blood vessels (retention/decay of ICG in circulation). The class given is in vivo. Here is the method:
Embodiments of the present disclosure enable systems and methods for detecting organ dysfunction and were validated using two optical systems to perform ICG fluorescence dosimetry on rats developing hepatocellular carcinoma (HCC).
One optical system used was a multiphoton microscope, which can non-invasively identify the location of vessels in vivo from sectioning two-photon fluorescence imaging. Time-course dynamics of concentration decay were also analyzed by the signal intensity within vessels. The other tested optical system was a point excitation and time course measurement using a 785 nm laser.
As shown in the diagram of FIG. 11, the multiphoton microscopy system used the scanning inverted microscope system of Leica DMI 3000M. The laser source was the femtosecond Cr:forsterite laser with a central wavelength of about 1250 nm. The output power was about 570 mW, and the beam diameter was about 2.5 mm. The excited light passed through a set of Galilean telescopes consisting of flat convex lenses and flat concave lenses to shrink the beam size down below 2 mm. Then, the excited beam passed through the periscope to rotate the polarization. After passing through the Iris Pair for system alignment, the beam entered a scanning module composed of a 16 kHz resonant mirror and a galvanometer mirror. The scanning angle of the resonant scanner was 5 degrees. The excited light was expanded by a set of relaying lenses so that it just filled the back aperture of the objective lens. The excitation beam was reflected by a 900-nm edged dichroic beam splitter (DM 900 SP) and focused by an objective lens (63×/NA 1.15. Zeiss) to excite biological tissues.
The generated two-photon fluorescence signals of ICG were epi-collected by the same objective lens and penetrated the DM900 SP. The signals were directed to a 484 nm edged dichroic beam splitter (DM484LP). The third harmonic generation signal (417 nm) was separated from the fluorescent signals longer than 484 nm. The third harmonic generation (THG) and two photon fluorescent (TPF) signals were filtered by a 414 nm/18 nm band pass filter and a 650 nm long pass filter, respectively. These signals were subsequently detected by photomultiplier tubes and digitized by a field programmable logic gate array (FPGA).
After the injection of ICG into the tail, there was a relatively low scattering and absorption of laser in the 1230 nm band, so the wavelength band could penetrate the skin deeper, and the background noise was low. Because blood cells can give strong THG signals, it was possible to locate the blood vessel by using THG imaging, as shown in FIG. 15A. Before ICG injection, there was no TPF signal (see FIG. 15B). After the injection, the TPF signals appeared immediately in the region of vessel (see FIG. 15C).
By selecting the region of interest (ROI) within vessel, we quantified the TPF intensity within the vessels. The fluorescence dosimetry curve of ICG can thus be measured (as shown in FIG. 16), which is ideal to evaluate the liver function. The dosimetry curve can be fitted with a single exponential decay function (red curve in FIG. 16), which represents a 4.4 minutes decay time constant after injection of ICG. The decay constant can be used as an index to evaluate the liver function. For Group 1 and Group 3 four serum parameters were measured to obtain liver function information: serum albumin, total bilirubin, GPT, and GOT. […]

The conditions of data set [2]: healthy person; cited from earlier work.
The test system of the next data set is liver. Kind of data set: Biochemical assay of rat serum in DEN-induced hepatocellular carcinoma rat model. In kind it is in vivo. As to the method:
Hepatocellular carcinoma (HCC) is a well-known malignant liver tumor often caused by liver cirrhosis. N-Nitrosodiethylamine ([…], DEN), which is a toxic substance with strong liver toxicity, was used to induce HCC in a rat tumor model. The dose of 300 g rats was 0.75 ml DEN/5 liters in drinking water; the dose of 400 g rats was 1.0 ml DEN/5 liters in drinking water. When the rats weighed over 200 g (about 6-7 weeks), they started to be fed. Group 1 was fed a half dose DEN, while Group 3 was fed a full dose. After 6 weeks of consecutive feeding (at the 12th week of experiment), feeding DEN to Group 1 discontinued. Group 3 continued scheduled DEN feedings for three additional weeks. Liver tumors were formed and confirmed by high-frequency ultrasonic imaging in vivo.
After rats were sacrificed, blood was collected and centrifuged, and the serum from centrifuge was tested, which included albumin, total bilirubin, glutamic pyruvic transaminase and glutamic oxaloacetic transaminase. If the liver is abnormal, the albumin content in the blood will decrease. Total bilirubin contains direct bilirubin and indirect bilirubin, which are the product of liver metabolism. If liver function is abnormal, total bilirubin in blood rises. Glutamic-pyruvate transaminase (GPT) and glutamic oxaloacetic transaminase (GOT) are also commonly used markers to evaluate liver function, although these two enzymes are not only found in the liver. Nevertheless, they are more abundant in liver cells than in other organs or tissue. When the liver is damaged, inflamed liver cells release GPT and GOT into the blood in large quantities. Therefore, the amount of these factors in the blood may be useful as a basis for judging the health of liver function. In addition, the liver was made into a paraffin block and processed with H&E staining. The staining results were observed and imaged by Nikon ECLIPSE NiE orthotropic fluorescence microscope.

[3] abbreviates: Group 3 rats (full dose DEN, HCC), FIG. 18.
[4] abbreviates: Group 1: half dose DEN in drinking water, 6 weeks.
[5] abbreviates: Group 3: full dose DEN in drinking water, 9 weeks.

On to `CC1(C)C(/C=C/C=C/C=C/C=C2\N(CCCCS(=O)(=O)O)c3ccc4ccccc4c3C2(C)C)=[N+](CCCCS(=O)(=O)[O-])c2ccc3ccccc3c21` [ICG, indocyanine green], for which, in data set [1] (setting [3]), the “decay time (exponential decay model fit)” value came to 13 min and the “initial amount still retained in circulation at 15 minutes post injection” value is 45%. In data set [1] (healthy control Group rats, FIG. 16), the “decay time constant after injection of ICG (single exponential decay fit)” value was found to be 4.4 min. The “amount of ICG metabolized within 15 minutes” value in data set [1] (healthy control Group rats, TPF dosimetry curve, FIG. 16) stood at 90%. For the same compound, the “leakage of ICG out of blood vessels (TPF imaging after tail injection)” value in data set [1] (rat, sectioning TPF/THG images, FIG. 15) was “did not leak out into extravascular spaces”. Besides, the “ICG-15 (retention percentage at 15 minutes post ICG injection)” value in data set [2] is reported as “below 10 % of the initial concentration”.

In the data set with liver (setting [4]), `CCN(CC)N=O` [DEN, N-Nitrosodiethylamine] came in with an Albumin of 3.9 g/dL, a GOT of 89 U/L, a GPT of 60.3 U/L and a Total bilirubin of 0.27 mg/dL. In the data set with liver (setting [5]), this compound came in with an Albumin of 3.75 g/dL, a GOT of 265 U/L, a GPT of 129 U/L and a Total bilirubin of 0.6 mg/dL.
